Data as given in patent US4927937A, “Pharmacologically active ε-valerolactams” (Chinese Academy of Medical Science, priority 1986, dated 1990).

Legend:
[1] = animal tests, literature report; cited from earlier work
[2] = system: CCl4 intoxicated mice (SGPT); experiment: Hepatoprotective action: SGPT of CCl4 intoxicated mice; type: in vivo, mouse (male Kunming strain); conditions: 250 mg/kg × 2 orally at 8 h interval, 0.1% CCl4 10 ml/kg injected 24 h after second dose, 9 mice per group; P <0.01; control 1678 + 261
Method: Male Kunming strain mice weighing 18-22 grams were used throughout the experiments. The compounds to be tested were suspended in 5% Tween 80 and given orally by gavage. The vehicle of 5% Tween 80 solution was administered to control mice via the same route. In in vitro experiments, the compounds were dissolved in dimethylformamide and added directly into the incubation mixture.
Mice were divided into several groups. The control group was administered the vehicle. The other groups were given two doses (250 mg/kg) of the compound at an interval of 8 h, respectively. 10 ml/kg of 0.1% CCl4 in vegetable oil was injected in 24 h after the second administration of the compound. The mice were fasted for 16 h and sacrificed by decapitation. SGPT and liver lipids were determined. A piece of liver was processed into sections for pathological observation.

[3] = system: male rats, retrograde amnesia under hypoxia; experiment: Retrograde amnesia (rat) under hypoxic conditions; type: in vivo; conditions: 100 mg/kg p.o., hypoxia 3.8% oxygen, 15 animals per group
Method: The apparatus (39 cm long, 21 cm high, and 21 cm wide) consists of two compartments, one made of translucent plastic (29 cm long) and the other one painted black (10 cm long) It has a bottom of spaced metal grids which are connected to a stimulating device delivered 1.6 mA for 20 s.
Both compartments are connected via a door which can be closed.
Male rats (100-120 g body weight) will be placed individually in the large compartment and allowed to explore both compartments for 3 min.
Thereafter the animals are placed in the small (dark) compartment, the connecting door is closed and the foot shock is delivered. After that the animals are put in an air-tight cage which is prefused by a gas mixture containing 3.8% oxygen and 96.2% nitrogen.
24 hours later the rats are placed again in the bright compartment. The observation time is 3 min.
One experiment is performed in three groups of 15 animals each:
Group A: control group, not exposed to hypoxia
Group B: control group, receiving hypoxia after first training
Group C: treated animals, receiving hypoxia after first training.
Evaluation: the times the animals need to enter the dark compartment are measured in seconds. […]
The time difference between the control group B and the treated group C is calculated in percent (C-B=X%). X is considered to be measured for the potency of the antiamnestic effect of the substance tested.

| SMILES | spasmolytic activity [1] | SGPT units % X ± SE [2] | X (antiamnestic effect, C-B in percent of A-B) [3] [%] |
| --- | --- | --- | --- |
| C=CC(C)(C)c1cc2cc3c(cc2oc1=O)OC1(C)CCC(C(C)(C)O)OC1C3 (stereo not drawn) [Clausmarin A] | showed spasmolytic activity | – | – |
| CN1C=C(c2ccccc2)C(c2ccccc2)C(O)C1=O (stereo not drawn) [Example 1] | – | 739 + 196 units % | 11 |
